This passage reports IC50 results from patent publication US8309341B2, “2-mercaptocyclopentanecarboxylic acid compounds, a process for their preparation and pharmaceutical compositions containing them” (Les Laboratories Server, priority 2009, dated 2012).

Structures can show the parent of a compound that is named as a salt.

This assay concerns the target T1, TAFIa (purified human TAFI activated by thrombin-thrombomodulin complex) (Homo sapiens, UniProt Q96IY4).
T1 construct: purchased American Diagnostica TAFI Activity Kit (catalogue number not given)
T1 sequence (Q96IY4 115-423): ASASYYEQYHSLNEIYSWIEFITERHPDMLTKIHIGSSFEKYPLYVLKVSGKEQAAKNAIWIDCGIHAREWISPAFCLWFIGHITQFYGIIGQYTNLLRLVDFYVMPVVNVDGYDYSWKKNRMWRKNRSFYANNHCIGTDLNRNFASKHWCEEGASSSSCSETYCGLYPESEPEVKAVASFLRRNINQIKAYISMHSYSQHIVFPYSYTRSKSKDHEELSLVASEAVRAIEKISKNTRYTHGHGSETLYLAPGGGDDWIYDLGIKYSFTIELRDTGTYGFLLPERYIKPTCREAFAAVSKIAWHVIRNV
Nature of the assay: Inhibition of TAFIa (chromogenic substrate, TAFI Activity Kit). The format is biochemical. The following applies: 3.2 nM TAFIa; compound incubated 5 minutes at 20° C., chromogenic substrate 30 minutes at 37° C., OD at 490 nm; read-out: IC50 (concentration which inhibits 50% of the enzymatic activity of TAFIa). As to the method:
Purified human TAFI (25 ng) is activated by adding thrombin-thrombomodulin complex in the presence of calcium chloride. After incubating for 20 minutes at 20° C., the reaction is stopped by adding the irreversible thrombin inhibitor PPACK (TAFI Activity Kit, American Diagnostica).
The compound under test is added to the (3.2 nM) TAFIa solution and incubated for 5 minutes at 20° C. A chromogenic TAFIa substrate is added and then incubated for 30 minutes at 37° C. The enzymatic reaction is stopped by adding sulphuric acid (TAFI Activity Kit, American Diagnostica). The optical density (OD) of the solution is measured at 490 nm with the aid of a spectrophotometer (Spectramax, Molecular Devices). The OD value of a well containing the reagents without the TAFI is subtracted from each of the OD values measured. The percentage inhibition of TAFIa at a given concentration of the compound under test is determined using the following formula: % inhibition=100−[(OD of compound×100)/OD of carrier]
The concentration of compound of the invention which inhibits 50% of the enzymatic activity of TAFIa (IC50) is calculated from the inhibition percentages of the OD values measured for increasing concentrations of the compound under test using non-linear regression according to a sigmoidal four-parameter equation (effect-dose).
With `NCCCC1(C(=O)O)CCCC1S` (single isomer, unassigned) [Example 6, 1-(3-Aminopropyl)-2-mercaptocyclopentanecarboxylic acid trifluoroacetate (racemic cis diastereoisomer)], the IC50 turned out to be 14 ± 2 nM.
In the case of `NCCCCC1(C(=O)O)CCCC1S` (single isomer, unassigned) [Example 8, 1-(4-Aminobutyl)-2-mercaptocyclopentanecarboxylic acid trifluoroacetate (racemic cis diastereoisomer)] it was 178 ± 11 nM; in that of `O=C(O)[C@@]1(CC2CCNCC2)CCC[C@H]1S` (single isomer, unassigned) [Example 13, 2-Mercapto-1-(piperidin-4-ylmethyl)-cyclopentanecarboxylic acid trifluoroacetate (racemic cis diastereoisomer)], 184 ± 22 nM.
The result for `NCCCC[C@]1(C(=O)O)CCC[C@H]1S` (single isomer, unassigned; enantiomer 2) [Example 10, 1-(4-Aminobutyl)-2-mercaptocyclopentanecarboxylic acid trifluoroacetate (cis diastereoisomer, enantiomer 2)] reads 81 ± 16 nM; that for `NCCC[C@@]1(C(=O)O)CCC[C@@H]1S` [Example 1, (1R,2S)-1-(3-Aminopropyl)-2-mercaptocyclopentanecarboxylic acid trifluoroacetate], 6.7 ± 0.6 nM; that for `CC(=O)S[C@H]1CCC[C@@]1(CCCN)C(=O)O` [Example 2, (1R,2S)-2-Acetylthio-1-(3-aminopropyl)-cyclopentanecarboxylic acid hydrochloride], 22 ± 6 nM.
In the case of `NCCC[C@@]1(C(=O)O)CCC[C@@H]1S` [Example 3, (1R,2S)-1-(3-Aminopropyl)-2-mercaptocyclopentanecarboxylic acid hydrochloride] it was 7.4 ± 1.1 nM; in that of `NCCC[C@@]1(C(=O)O)CCC[C@@H]1SS[C@H]1CCC[C@@]1(CCCN)C(=O)O` [Example 20, (1R,2S,1′R,2′S)-2,2′-Disulphanediylbis[1-(3-aminopropyl)cyclopentane-carboxylic acid]dihydrochloride], 186 ± 26 nM.
